Measured values from patent US4088778A, “Method for the treatment of hypertension” (priority 1975, dated 1978).
Read-outs that look alike come from different tables or passages of the source.

Tests used:
[1] = cited from earlier work
[2] = Experiment on young SHR (rats of spontaneous hypertension); type: in vivo, rats (7-week-old female SHR); details: 88 mg/kg TA
Description: Experiments were conducted by using two classes of rats of spontaneous hypertension (hereinafter referred to as "SHR"; provided by Nippon Rat K.K.) differing in the age. In the first experiment, 9-month-old chronic […] SHR (hereinafter referred to as "old SHR"), and in the second experiment, 7-week-old SHR in which hypertension was advancing (hereinafter referred to as "young SHR") was used.
(B) Experiment on Young SHR:
72 of 7-week-old female SHR (having a body weight of 130 to 175 g) were divided into 9 cages, each consisting of 8 rats. Service water was given as drinking water to rats of two cages among these 9 cages, and these rats were compared with other rats which were given a 1% aqueous solution of sodium chloride as drinking water. In each of the […] cages of rats to which the sodium chloride solution was given, no agent was administered to 2 of 8 rats, 20 mg/Kg of TN was administered to another 2 rats, 100 mg/Kg of TN was administered to still another 2 rats, and 88 mg/Kg of TA was administered to the remaining 2 rats.
After 2 weeks' feeding with the sodium chloride solution, administration was conducted once a day. Within 2 weeks from the start of administration,3 rats in the Control (non-administered) group, one rat in the 20 mg/Kg TN administered group, 3 rats in the 100 mg/Kg TN administered group, 3 rats in the 88 mg/Kg TA administered group and 4 rats in the service water given group were dead. In view of the body weight decrease and the snivel secretion and from the results of autopsy, it was judged that each of them died of pneumonia. The rats that died prior to initiation of the administration were not taken in account in evaluating the experimental results.

[3] = Hypotensive effect on experimental hypertension caused by DOCA; type: in vivo, male wistar rats
Description: (A) Hypotensive effect on experimental hypertension caused by administration of desoxycorticosterone (hereinafter referred to as "DOCA"):
Right kidneys were removed from 6-week-old male wistar rats, and a 1% aqueous solution of sodium chloride was given as drinking water and 12.5 mg/Kg of DOCA was intramuscularly injected every week. The change of the blood pressure was examined over a period of 6 weeks.
48 rats, each having one kidney removed, were divided into 6 groups, each consisting of 8 rats, and each group was placed in a cage. With respect to each group, a gum arabic solution was administered to 2 rats as non-administered control animals. 20 mg/Kg of TN was administered once a day to each of two rats among the remaining 6 rats, and 100 mg/Kg of TN was administered once a day to each of two rats among the remaining 4 rats. 88 mg/Kg of TA was administered once a day to each of the remaining two rats. TN and TA were administered in the form of a suspension in gum arabic. The blood pressure was measured by a Shimazu type systolic pressure continuous recording apparatus detecting pulse waves of rats taken in a thermostat fixed box maintained at 30° C.

[4] = Subacute and chronic toxicities; type: in vivo; details: rats 100 to 1000 mg/Kg and beagles 100 mg/Kg daily, 3 or 6 months
Description: (B) Subacute and Chronic Toxicities:
TN and TA were separately administered to rats and beagles at daily doses of 100 to 1000 mg/Kg and 100 mg/Kg, respectively, continuously for 3 or 6 months.

Acute toxicity on rats = type: in vivo; details: for LD50: rats
Description: (§1) Toxicities of TN and TA will now be described.

Acute toxicity on mice = type: in vivo
Description: as §1

[5] = Teratogenetic property test; type: in vivo, pregnant mice or pregnant rats; details: orally, 100 to 1200 mg/Kg
Description: (C) Teratogenetic Property Test:

NNc1nncc2ccccc12 [Hydralazine]
effect on the heart ([1]; prior art): increases the amount of blood fed to the heart and the pulse frequency and thus increases the load on the heart | hypotensive activity ([1]; prior art): high hypotensive activity | undesirable side effects ([1]; prior art): multiple arthritis resembling rheumatic arthritis and lupus erythematosus

CC(COc1ccccc1)N(CCCl)Cc1ccccc1 (stereo not shown) [phenoxybenzamine]
undesirable side effects ([1]; prior art): orthostatic hypotensive asthenia and tachycardia

NS(=O)(=O)c1cc2c(cc1Cl)NCNS2(=O)=O [hydrochlorothiazide]
undesirable side effects ([1]; in vivo): hypokalemia, hypercirycemia and manifestation of latent diabetes | hypotensive activity ([1]; prior art): moderate hypotensive activity

COC(=O)[C@H]1[C@H]2C[C@@H]3c4[nH]c5cc(OC)ccc5c4CCN3C[C@H]2C[C@@H](OC(=O)c2cc(OC)c(OC)c(OC)c2)[C@@H]1OC [Reserpine]
undesirable side effects ([1]; prior art): inhibition of the central nervous system, such as asthenic feeling

CC(=O)Oc1c(C)c(C)c2c(c1C)CCC(C)(CCCC(C)CCCC(C)CCCC(C)C)O2 (racemic) [TA, dl-α-tocopheryl acetate]
dead rats within 6 weeks from the start of the administration ([2]; among 11 rats, control 5 among 11): 3 rats | dead rats within 2 weeks from the start of administration ([2]; judged pneumonia, control 3): 3 rats | number of rats with blood pressure elevated to 170 mm Hg or higher ([3]; 88 mg/kg of TA once a day, among 12 rats (control 9 among 11)): 4 rats | hypotensive effect, overall conclusion from pharmacological tests on animals ([3]; DOCA rats, old SHR, young SHR): have a hypotensive effect | deaths [4]: no deaths | haematological, haemetobiological and histological surveys [4]: no manifestation of the toxicity was observed | inhibition of the body weight [4]: inhibition of the body weight was not observed | animals killed in acute toxicity test (Acute toxicity on rats; mice and rats, maximum amount that can be administered): no test animal was killed | LD50 (Acute toxicity on rats; rat, in vivo, im, I.M., male, read-out: LD50): > 10000 mg/kg | LD50 (Acute toxicity on rats; rat, in vivo, ip, I.P., male, read-out: LD50): > 2000 mg/kg | LD50 (Acute toxicity on rats; rat, in vivo, iv, I.V., male, read-out: LD50): > 250 mg/kg | LD50 (Acute toxicity on rats; rat, in vivo, po, P.O., male, read-out: LD50): > 15000 mg/kg | LD50 (Acute toxicity on rats; rat, in vivo, sc, S.C., male, read-out: LD50): > 15000 mg/kg | LD50 (Acute toxicity on rats; I.M., female): > 10000 mg/kg | LD50 (Acute toxicity on rats; I.V., female): > 250 mg/kg | LD50 (Acute toxicity on rats; P.O., female): > 15000 mg/kg | LD50 (Acute toxicity on rats; S.C., female): > 15000 mg/kg | LD50 (Acute toxicity on mice; I.M., female): > 15000 mg/kg | LD50 (Acute toxicity on mice; I.V., female): > 1000 mg/kg | LD50 (Acute toxicity on mice; P.O., female): > 20000 mg/kg | LD50 (Acute toxicity on mice; S.C., female): > 20000 mg/kg | LD50 (Acute toxicity on mice; mouse, in vivo, im, I.M., male, read-out: LD50): > 15000 mg/kg | LD50 (Acute toxicity on mice; mouse, in vivo, ip, I.P., male, read-out: LD50): > 4000 mg/kg | LD50 (Acute toxicity on mice; mouse, in vivo, iv, I.V., male, read-out: LD50): > 1000 mg/kg | LD50 (Acute toxicity on mice; mouse, in vivo, po, P.O., male, read-out: LD50): > 20000 mg/kg | LD50 (Acute toxicity on mice; mouse, in vivo, sc, S.C., male, read-out: LD50): > 20000 mg/kg | influences on mother animals, embryos and newborn babies [5]: no influences were observed | teratogenetic property [5]: no teratogenetic property

C[C@](N)(Cc1ccc(O)c(O)c1)C(=O)O [l-α-Methyl Dopa]
hypotensive activity ([1]; prior art): high hypotensive activity | undesirable side effects ([1]; prior art): mammary hypertrophy, paraesthesia, nightmare and Parkisonism
